Here are results for four compounds from patent US20210268030A1, “FIBROADIPOGENIC PROGENITOR-DERIVED EXOSOMES FOR REGENERATION OF DYSTROPHIC MUSCLES” (EXOFIX S.R.L., priority 2018, published 2021).

Test [1] relates to MuSCs within single fibres. Put plainly: Single muscle fibres incubated with FAP conditioned media or exosomes (Pax7, MyoD, EdU). The test is classed as cell-based, C57BL6J-WT mice. The method, then: Single fibers were isolated using Pasut (2013) and Moyle's protocol (2014) from tibialis anterior, extensor digitorum longus, gastrocnemius and soleus muscles of C57BL6J-WT mice and cultured in proliferating medium (GM1: DMEM+pyruvate+4.5 g/l glucose+glutamate, 10% horse serum (HS), 0.5% Chicken Embryo Extract) for 24 hours, then exposed for the next 24 hrs to GM1 conditioned media derived from culture of FAPs (MEDIA-FAPs) isolated from young mdx mouse treated for 15 days with vehicle (CTR) or mdx mice treated with TSA (TSA) or media isolated from FAPs CTR and TSA pre-treated with the GW4869 to inhibit exosome biogenesis. In a parallel, independent experiment, single fibers were exposed to exosomes (EXO-FAPs) purified from MEDIA-FAPs and added to GM1 for 24 hours.
In ex-vivo experiments FAP-derived Exosomes (10·g) isolated by TEIR were put in culture with MuSCs or with myofibers in the cell culture media.
To investigate this hypothesis, we evaluated the effect of FAP-derived exosomes from HDACi-treated or control-treated mdx mice on MuSCs within single fibres isolated from WT mice. Freshly isolated single muscle fibres from tibialis anterior, extensor digitorum longus, gastrocnemius and soleus of C57BL6J mice were incubated with FAP-derived exosomes or whole conditioned media, and their effect on MuSCs was evaluated by monitoring the expression of Pax7, MyoD and DNA synthesis (EdU incorporation). In this experimental setting, the uptake of FAP-derived exosomes by MuSCs from single fibers was first confirmed by staining of lipidic dye PKH-67 used on purified vesicles (FIG. 6B).

Test [2] concerns MuSCs. The test can be described thus: Transwell co-culture of FAPs with MuSCs, myogenic differentiation (fusion index). The note with it: FAPs exposed to GW4869 (10 uM) before transwell co-culture. In kind it is cell-based, mdx mice. As to the method:
MuSCs and FAP cells were co-cultured by using inserts with 1.0 μm porous membrane to avoid direct contact between populations.
Cell culture inserts with 1.0-·m pore (#353102, #353104, Falcon) and 6 or 24 -well culture plates (BD Bioscience) were used for transwell co-culture. Freshly sorted MuSCs were plated in the bottom of the plate, while FAP cells were plated on the upper insert.
To decrease FAP-exosomes release, GW4869 (10 uM, #D1692, Sigma) was added to FAPs culture 30′ before the co-culture setting with MuSCs. To wash away any residual trace of GW4869, FAPs media was refreshed right before co-culture.
For Drosha SiRNA treatments, in vivo TSA treated FAPs on transwell were transfected with commercially available Drosha siRNA using Dharmafect3.0 (Dharmacon) according to manufacturer instructions; after 6 hours FAPs were put in co-culture with MuSCs.
We began to determine the identity of the extracellular mediators of FAP's support to MuSCs in DMD muscles, by performing transwell co-cultures between FAPs isolated from 1.5 month old mdx mice and MuSCs isolated from age-matched mdx mice. In transwell cultures, cells are separated by a membrane of 1 μm pore size that prevents direct cell contact, yet allows reciprocal transfer of soluble mediators of functional interactions between co-cultured cells.

The subject of test [3] is MuSCs. Put plainly: PKH-67 tracing of exosome transfer from FAPs to MuSCs in transwell co-culture. In kind it is cell-based, mdx mice. The settings on record: PKH67-labelled FAPs exposed to GW4869. The method, then:
To stain FAPs derived exosomes, FAP cells were incubated with the lipidic dye PKH-67 (#P7333, Sigma) according to manufacturer instructions prior to transwell co-culture with MuSCs.
To analyse the capacity of MuSCs to uptake FAP-derived exosomes, we performed a transwell co-culture in which the potential “source” of exosomes—FAPs—was […] prior to transwell co-culture with the “acceptor” cells—MuSCs. […] PKH-67 is incorporated into newly generated exosomes, and therefore traces their passage to acceptor cells.

Test [4] relates to animals affected by muscular dystrophy. The settings on record: in vivo; cited from earlier work.
Test [5] relates to muscles of DMD patients. The settings on record: phase I/II clinical trial, after one year of treatment; cited from earlier work.
The test system of test [6] is preclinical model of DMD. The settings on record: Colussi et al. 2010; cited from earlier work.
The mark [7] stands for this setting: supernatant of FAPs from control-treated mdx mice pre-exposed to GW4869.

For `O=C(/C=C/c1ccc(/C=C/C(=O)Nc2ccc(C3=NCCN3)cc2)cc1)Nc1ccc(C2=NCCN2)cc1` [GW4869], the “ability of the whole supernatant to increase all MuSC populations as well as their proliferation” value in test [1] (GW4869 treatment of FAPs from TSA-treated mdx mice) is “drastically reduced”. Moreover, in test [1] (setting [7]), the “number of Pax7+/MyoD+ MuSCs with high DNA synthesis (Edu+)” value is reported as “not altered”; the “number of quiescent (Pax7+MyoD−) and differentiation-committed (Pax7- MyoD+) MuSCs” value is recorded as “drastic reduction”. Moreover, the “FAP's ability to enhance MuSCs differentiation into multinucleated myotubes” value in test [2] was “abrogated”. The “prevention of detection of the PKH-67 signal in MuSCs co-cultured with FAPs” value in test [3] is on record as “more than 80%”.

For the compound `CCN(CC)Cc1ccc2cc(COC(=O)Nc3ccc(C(=O)NO)cc3)ccc2c1` [Givinostat], the “activity in the treatment of animals affected by muscular dystrophy” value (“activity in the treatment” below) in test [4] is given as “active”. The “histology of the muscles of DMD patients” value in test [5] is recorded as “positively affect”.

As for `Nc1ccccc1NC(=O)c1ccc(CNC(=O)OCc2cccnc2)cc1` [MS-275], the “activity in the treatment” value in test [4] is recorded as “active”.

On to `O=C(CCCCCCC(=O)Nc1ccccc1)NO` [Vorinostat], for which the dose response curve entry in test [6] is on record as “bell-shaped”. Besides, in test [4], the “activity in the treatment” value is recorded as “active”.
